Assay results reported in patent publication US10710979B2, “EGFR kinase inhibitor and preparation method and use thereof” (ZHEJIANG BOSSAN PHARMACEUTICAL CO. LTD., priority 2015, dated 2020).

Columns and labels:
Assay type in all cases: cell-based
[1] = test system: human melanoma cell A375; test: Effect of compounds on proliferation of tumor cells (MTT), A375; conditions: A-375, 72 hours
Method: (§1) Human lung cancer cells H1975, H522, human hepatoma cell HepG2, human melanoma cell A375, human epidermal cancer cell A431, and human colon cancer cells COLO205 were cultivated. The cells were collected when they have grown to logarithmic growth phase, and centrifuged at 1000 rpm for 5 min, from which the supernatant was discarded, and the rest was suspended with appropriate amount of medium, and the concentration of cells was adjusted to 2.5-5.5×10^4/ml (once it was 3.0-5.5×10^4/ml). The cell suspension was inoculated into a 96-well cell culture plate with 100 μl per well, and placed in a cell incubator (37° C., 5% CO2) for 24 hours, and then 100 μl of the drug diluted in the cell culture medium was added to each well of the drug group. Three duplicate wells were set for each drug, and the negative control group was medium containing 0.5% DMSO. After being incubated for 72 hours in the incubator, 20 μl of MTT (5 mg/ml) was added to each well, which was placed under 37° C. for 3 hours. 150 μl of DMSO was added to each well and shaken at 37° C. for 5 mins, and absorbance (OD) was determined at 492 nm. The Prism Graphpad statistical software was used to calculate IC50 values.

[2] = test system: human hepatoma cell HepG2; test: Effect of compounds on proliferation of tumor cells (MTT), HepG2; conditions: 72 hours
Method: as §1

[3] = test system: human epidermal cancer cell A431; test: Effect of compounds on proliferation of tumor cells (MTT), A431; conditions: A-431, 72 hours
Method: as §1

[4] = test system: human lung cancer cells H1975; test: Effect of compounds on proliferation of tumor cells (MTT), H1975; conditions: Homo sapiens, NCI-H1975; H1975 cells, 72 hours, MTT
Method: as §1

[5] = test system: human colon cancer cells COLO205; test: Effect of compounds on proliferation of tumor cells (MTT), COLO205; conditions: COLO 205, 72 hours
Method: as §1

[6] = test system: human lung cancer cells H522; test: Effect of compounds on proliferation of tumor cells (MTT), H522; conditions: NCI-H522, 72 hours
Method: as §1

Row | IC50 [1] | IC50 [2] | IC50 [3] | IC50 [4] | IC50 [5] | IC50 [6] | Structure (SMILES)
1 | 2.42 µM | 15.8 µM | 5.26 µM | 0.224 µM | – | – | C=CC(=O)Nc1cccc(Nc2nc(Nc3ccc(N4CCNCC4)nc3OC)ncc2C(F)(F)F)c1 [ES-069]
2 | 4.95 µM | 7.22 µM | 1.75 µM | 0.111 µM | – | – | C=CC(=O)Nc1cccc(Nc2nc(Nc3ccc(N4CCN(C(=O)OC(C)(C)C)CC4)nc3OC)ncc2C(F)(F)F)c1 [ES-070]
3 | 15 µM | 1.95 µM | 7.08 µM | 0.214 µM | – | – | C=CC(=O)Nc1cccc(Nc2nc(Nc3cnc(N4CCN(C(=O)OC(C)(C)C)CC4)cc3OC)ncc2C(F)(F)F)c1 [ES-073]
4 | 10.3 µM | 6.88 µM | 3.5 µM | 0.179 µM | – | – | C=CC(=O)Nc1cccc(Nc2nc(Nc3cnc(N4CCN(C(C)=O)CC4)cc3OC)ncc2C(F)(F)F)c1 [ES-074]
5 | 8.94 µM | 9.2 µM | 4.62 µM | 0.15 µM | 4.62 µM | 2.69 µM | C=CC(=O)Nc1cccc(Nc2nc(Nc3ccc(NC4CCN(C(C)=O)C4)nc3OC)ncc2C(F)(F)F)c1 (stereo not shown) [ES-123]
6 | 6.26 µM | 3.73 µM | 2.09 µM | 0.0557 µM | 2.21 µM | 1.25 µM | C=CC(=O)Nc1cccc(Nc2nc(Nc3ccc(NC4CCN(CCF)C4)nc3OC)ncc2C(F)(F)F)c1 (stereo not shown) [ES-124]
7 | 12.2 µM | 16.8 µM | 5.04 µM | 0.149 µM | 5.56 µM | 3.96 µM | C=CC(=O)Nc1cccc(Nc2nc(Nc3ccc(NC4CCN(C(=O)C5COC5)C4)nc3OC)ncc2C(F)(F)F)c1 (stereo not shown) [ES-125]
8 | 4.59 µM | 0.794 µM | 2.25 µM | 0.0356 µM | 3.35 µM | 1.77 µM | C=CC(=O)Nc1cccc(Nc2nc(Nc3ccc(N4CCN(C(=O)C5CC5)CC4)nc3OC)ncc2C(F)(F)F)c1 [ES-130]
9 | 4.04 µM | 3.07 µM | 3.82 µM | 0.0579 µM | 5.33 µM | 2.4 µM | C=CC(=O)Nc1cccc(Nc2nc(Nc3ccc(N4CCN(C(=O)N(C)C)CC4)nc3OC)ncc2C(F)(F)F)c1 [ES-131]
10 | 4.42 µM | 4.14 µM | 2.62 µM | 0.23 µM | 3.78 µM | 2.9 µM | C=CC(=O)Nc1cccc(Nc2nc(Nc3ccc(N4CCN(S(=O)(=O)N(C)C)CC4)nc3OC)ncc2C(F)(F)F)c1 [ES-132]
11 | 12.5 µM | 13.2 µM | 5.68 µM | 0.43 µM | 5.66 µM | 3.39 µM | C=CC(=O)Nc1cccc(Nc2nc(Nc3ccc(N4CCN(S(=O)(=O)NC)CC4)nc3OC)ncc2C(F)(F)F)c1 [ES-133]
12 | 3.36 µM | 0.399 µM | 1.72 µM | 0.0691 µM | 2.95 µM | 1.64 µM | C=CC(=O)Nc1cccc(Nc2nc(Nc3ccc(N4CCN(S(=O)(=O)C5CC5)CC4)nc3OC)ncc2C(F)(F)F)c1 [ES-134]
13 | 1.5 µM | 0.329 µM | 4.43 µM | 0.11 µM | 8.87 µM | 3.25 µM | C=CC(=O)Nc1cccc(Nc2nc(Nc3ccc(N4CCN(C(=O)C(F)(F)F)CC4)nc3OC)ncc2C(F)(F)F)c1 [ES-135]
14 | 1.04 µM | 2.05 µM | 0.768 µM | 0.175 µM | 3.59 µM | 1.59 µM | C=CC(=O)Nc1cccc(Nc2nc(Nc3ccc(N4CCN(C(=O)OCC)CC4)nc3OC)ncc2C(F)(F)F)c1 [ES-136]
15 | 3.58 µM | 2.69 µM | 2.27 µM | 0.0211 µM | 4.12 µM | 2.29 µM | C=CC(=O)Nc1cccc(Nc2nc(Nc3ccc(N4CCN(C(=O)CC)CC4)nc3OC)ncc2C(F)(F)F)c1 [ES-137]
16 | 3.79 µM | 3.07 µM | 2.91 µM | 0.254 µM | 4.08 µM | 5.89 µM | C=CC(=O)Nc1cccc(Nc2nc(Nc3ccc(N4CCN(C(=O)CC(C)(C)C)CC4)nc3OC)ncc2C(F)(F)F)c1 [ES-138]
17 | 9.47 µM | 3.86 µM | 4.54 µM | 1.65 µM | 3.6 µM | 2.71 µM | C=CC(=O)Nc1cccc(Nc2nc(Nc3ccc(N4CCN(C(=O)C(C)(C)C)CC4)nc3OC)ncc2C(F)(F)F)c1 [ES-139]

Row | IC50 [1] | IC50 [2] | IC50 [3] | IC50 [4] | IC50 [5] | IC50 [6] | Structure (SMILES)
18 | 6.46 µM | 5.87 µM | 2.08 µM | 0.27 µM | 3.16 µM | 2.28 µM | C=CC(=O)Nc1cccc(Nc2nc(Nc3ccc(N4CCN(C(=O)COC(C)=O)CC4)nc3OC)ncc2C(F)(F)F)c1 [ES-140]
19 | 4.5 µM | 4.05 µM | 0.72 µM | 0.0552 µM | 4.25 µM | 2.34 µM | C=CC(=O)Nc1cccc(Nc2nc(Nc3ccc(N4CCN(C(=O)C(C)C)CC4)nc3OC)ncc2C(F)(F)F)c1 [ES-141]
20 | 4.4 µM | 1.01 µM | 1.22 µM | 0.08 µM | 2.96 µM | 0.826 µM | C=CC(=O)Nc1cccc(Nc2nc(Nc3ccc(N4CCN(S(C)(=O)=O)CC4)nc3OC)ncc2C(F)(F)F)c1 [ES-142]
21 | 2.02 µM | 0.401 µM | > 100 µM | 0.48 µM | 2.15 µM | 1.07 µM | C=CC(=O)Nc1cccc(Nc2nc(Nc3ccc(N4CCN(S(=O)(=O)CC)CC4)nc3OC)ncc2C(F)(F)F)c1 [ES-143]
22 | 1.51 µM | 0.101 µM | 2.18 µM | 0.133 µM | 1.46 µM | 0.399 µM | C=CC(=O)Nc1cccc(Nc2nc(Nc3ccc(N4CCN(S(=O)(=O)CCC)CC4)nc3OC)ncc2C(F)(F)F)c1 [ES-144]
23 | 77.9 µM | 33.3 µM | 13.5 µM | 0.542 µM | 37.6 µM | 18 µM | C=CC(=O)Nc1cccc(Nc2nc(Nc3ccc(N4CCN(S(=O)(=O)C(C)C)CC4)nc3OC)ncc2C(F)(F)F)c1 [ES-145]
24 | 12.2 µM | 13 µM | 3.46 µM | 0.046 µM | 8.71 µM | 3 µM | C=CC(=O)Nc1cccc(Nc2nc(Nc3ccc(NC4CCN(C)C4)nc3OC)ncc2C(F)(F)F)c1 (stereo not shown) [ES-146]
25 | 4.2 µM | 4.28 µM | 2.21 µM | 0.464 µM | 4.29 µM | 1.74 µM | C=CC(=O)Nc1cccc(Nc2nc(Nc3ccc(N(C)C4CCN(C(C)=O)C4)nc3OC)ncc2C(F)(F)F)c1 (stereo not shown) [ES-147]
26 | 5.87 µM | 4.53 µM | 2.5 µM | 0.032 µM | 5 µM | 1.56 µM | C=CC(=O)Nc1cccc(Nc2nc(Nc3ccc(N(C)C4CCN(CCF)C4)nc3OC)ncc2C(F)(F)F)c1 (stereo not shown) [ES-148]
27 | 6.71 µM | 5.23 µM | 3.92 µM | 0.0491 µM | 5.07 µM | 3.1 µM | C=CC(=O)Nc1cccc(Nc2nc(Nc3ccc(N(C)C4CCN(C(=O)C5COC5)C4)nc3OC)ncc2C(F)(F)F)c1 (stereo not shown) [ES-149]
28 | 6.22 µM | 3.27 µM | 2.05 µM | 0.0232 µM | 5.15 µM | 1.51 µM | C=CC(=O)Nc1cccc(Nc2nc(Nc3ccc(N(C)C4CCN(C)C4)nc3OC)ncc2C(F)(F)F)c1 (stereo not shown) [ES-150]
29 | 4.47 µM | 4.78 µM | 6.74 µM | 0.132 µM | 6.07 µM | 3.13 µM | C=CC(=O)Nc1cccc(Nc2nc(Nc3ccc(N(C)C4CCN(C(=O)N(C)C)C4)nc3OC)ncc2C(F)(F)F)c1 (stereo not shown) [ES-151]
30 | 5.46 µM | 1.38 µM | 1.81 µM | 0.0872 µM | 1.79 µM | 0.655 µM | C=CC(=O)Nc1cccc(Nc2nc(Nc3ccc(N4CCN(C(C)=O)CC4)nc3)ncc2C(F)(F)F)c1 [ES-157]
31 | 3.76 µM | 3.42 µM | 1.07 µM | 0.107 µM | 1.93 µM | 0.735 µM | C=CC(=O)Nc1cccc(Nc2nc(Nc3ccc(N4CCN(C(=O)N(C)C)CC4)nc3)ncc2C(F)(F)F)c1 [ES-158]
32 | 49.9 µM | 2.23 µM | 37 µM | 0.649 µM | 1.86 µM | 3.13 µM | C=CC(=O)Nc1cccc(Nc2nc(Nc3cnc(N4CCN(C(=O)OC(C)(C)C)CC4)nc3OC)ncc2C(F)(F)F)c1 [ES-159]
33 | > 100 µM | 5.79 µM | 7.21 µM | 0.69 µM | 5.08 µM | 3.56 µM | C=CC(=O)Nc1cccc(Nc2nc(Nc3cnc(N4CCN(C(C)=O)CC4)nc3OC)ncc2C(F)(F)F)c1 [ES-160]
34 | 7.86 µM | 6.24 µM | 2.32 µM | 0.0868 µM | 4.14 µM | 2.75 µM | C=CC(=O)Nc1cccc(Nc2nc(Nc3cnc(N4CCN(C)CC4)nc3OC)ncc2C(F)(F)F)c1 [ES-161]
